Results taken from patent US8133847B2, “Pyrido[2,3-B]pyrazine derivatives useful as herbicidal compounds” (Syngenta Limited, priority 2006, dated 2012).

Key:
Test in all cases: Example B1 herbicidal action, post-emergence, 96-cell seed trays, climatic chamber
Format in all cases: in vivo
Solanum nigrum (SOLNI) = conditions: Application post-emergence, 1000 mg/l spray equivalent to 1000 g/ha, evaluated after 9 days (100=total damage to plant, 0=no damage to plant)
Experimental: (§1) Seeds of a variety of test species were sown in sterilised standard soil in seed trays each having 96 cells. After cultivation for 8 to 9 days cultivation (post-emergence) under controlled conditions in a climatic chamber (cultivation at 23/17° C., day/night; 13 hours light; 50-60% humidity), the plants were treated with an aqueous spray solution of 1000 mg/l of the active ingredient dissolved in 10% DMSO (dimethyl sulfoxide, CAS RN 67-68-5) as a solvent, equivalent to 1000 g/ha. The plants were grown in the climatic chamber after application at (24/19° C., day/night; 13 hours light; 50-60% humidity) and watered twice daily. After 9 days until the test was evaluated (100=total damage to plant, 0=no damage to plant)

[1] = system: Amaranthus retroflexus (AMARE); conditions: Application post-emergence, 1000 mg/l spray equivalent to 1000 g/ha, evaluated after 9 days
Experimental: as §1

Stellaria media (STEME) = conditions: Application post-emergence, 1000 mg/l spray equivalent to 1000 g/ha, evaluated after 9 days (100=total damage to plant, 0=no damage to plant)
Experimental: as §1

[2] = system: Nasturtium officinale (NAAOF); design: scale not given here; conditions: Application post-emergence, 1000 mg/l spray equivalent to 1000 g/ha, evaluated after 9 days (100=total damage to plant, 0=no damage to plant)
Experimental: as §1

Row | Compound | damage to plant, Solanum nigrum (SOLNI) (Solanum nigrum (SOLNI)) | damage to plant, Amaranthus retroflexus (AMARE) [1] | damage to plant, Stellaria media (STEME) (Stellaria media (STEME)) | damage to plant, Nasturtium officinale (NAAOF) [2]
1 | O=c1[nH]c2nccnc2c(O)c1-c1ccc(Cl)cc1Cl [Compound A1] | 0 | 0 | 7 | 5
2 | O=c1[nH]c2nccnc2c(O)c1-c1ccccc1Cl [Compound A2] | 0 | 6 | 2 | 2
3 | O=c1[nH]c2nccnc2c(O)c1-c1cc(Cl)ccc1Cl [Compound A3] | 0 | 8 | 3 | 4
4 | O=c1[nH]c2nccnc2c(O)c1-c1cccc(Cl)c1Cl [Compound A4] | 2 | 5 | 1 | 2
5 | O=c1[nH]c2nccnc2c(O)c1-c1c(Cl)cccc1Cl [Compound A5] | 3 | 3 | 3 | 6
6 | Cc1ccccc1-c1c(O)c2nccnc2[nH]c1=O [Compound A6] | 5 | 0 | 0 | 0
7 | O=c1[nH]c2nccnc2c(O)c1-c1ccccc1C(F)(F)F [Compound A8] | 0 | 5 | 2 | 7
8 | COc1c(Cl)cc(Cl)cc1-c1c(O)c2nccnc2[nH]c1=O [Compound A9] | 4 | 7 | 8 | 3
9 | O=c1[nH]c2nccnc2c(O)c1-c1ccc(F)cc1Cl [Compound A10] | 0 | 9 | 2 | 2
10 | O=c1[nH]c2nccnc2c(O)c1-c1ccccc1OC(F)(F)F [Compound A13] | 0 | 5 | 3 | 0
11 | O=c1[nH]c2nccnc2c(O)c1-c1c(Cl)cc(C(F)(F)F)cc1Cl [Compound A14] | 0 | 6 | 7 | 7
12 | O=c1[nH]c2nccnc2c(O)c1-c1ccccc1F [Compound A15] | 0 | 0 | 0 | 2
13 | O=c1[nH]c2nccnc2c(O)c1-c1ccc(F)cc1C(F)(F)F [Compound A17] | 5 | 8 | 5 | 7
14 | O=c1[nH]c2nccnc2c(O)c1-c1ccc(F)cc1Br [Compound A18] | 6 | 6 | 4 | 9
15 | O=c1[nH]c2nccnc2c(O)c1-c1cc(Cl)ccc1C(F)(F)F [Compound A19] | 7 | 6 | 5 | 5
16 | COc1ccc(-c2c(O)c3nccnc3[nH]c2=O)c(OC)c1 [Compound A20] |  |  | 0 | 2
17 | O=c1[nH]c2nccnc2c(O)c1-c1c(Cl)ccc(Cl)c1Cl [Compound A21] | 5 | 7 | 3 | 6
18 | O=c1[nH]c2ncc(Br)nc2c(O)c1-c1c(Cl)cccc1Cl [Compound A26] | 0 | 0 | 2 | 0
19 | O=c1[nH]c2ncc(Cl)nc2c(O)c1-c1c(Cl)cccc1Cl [Compound A27] | 0 | 0 | 2 | 0

Row | Compound | damage to plant, Solanum nigrum (SOLNI) (Solanum nigrum (SOLNI)) | damage to plant, Amaranthus retroflexus (AMARE) [1] | damage to plant, Stellaria media (STEME) (Stellaria media (STEME)) | damage to plant, Nasturtium officinale (NAAOF) [2]
20 | O=c1[nH]c2nccnc2c(O)c1-c1cc(Cl)cc(Cl)c1Cl [Compound A28] | 0 | 2 | 2 | 3
21 | O=c1[nH]c2nccnc2c(O)c1-c1ccc2ccccc2c1 [Compound A29] | 2 | 2 | 3 | 0
22 | Cc1cc(C)c(-c2c(O)c3nccnc3[nH]c2=O)c(C)c1 [Compound A30] | 0 | 7 | 4 | 3
23 | O=c1[nH]c2nccnc2c(O)c1-c1c(Cl)cccc1C(F)(F)F [Compound A31] | 0 | 5 | 3 | 3
24 | O=c1[nH]c2nccnc2c(O)c1-c1cccc(C(F)(F)F)c1Cl [Compound A32] | 2 | 0 | 0 | 0
25 | Cc1ccc(Cl)c(-c2c(O)c3nccnc3[nH]c2=O)c1F [Compound A33] | 3 | 4 | 3 | 2
26 | O=c1[nH]c2nccnc2c(O)c1-c1cc(C(F)(F)F)ccc1Cl [Compound A34] | 2 | 6 | 4 | 4
27 | Cc1ccc(F)c(-c2c(O)c3nccnc3[nH]c2=O)c1Cl [Compound A35] | 4 | 4 | 0 | 3
28 | CC(=O)Oc1c(-c2ccc(Cl)cc2Cl)c(=O)[nH]c2nccnc12 [Compound B1] | 0 | 8 | 3 | 0
29 | CC(C)C(=O)Oc1c(-c2ccc(F)cc2Cl)c(=O)[nH]c2nccnc12 [Compound B2] | 0 | 5 | 0 | 0
30 | CCC(=O)Oc1c(-c2ccc(F)cc2Cl)c(=O)[nH]c2nccnc12 [Compound B3] | 0 | 8 | 2 | 0
31 | CC(=O)Oc1c(-c2ccccc2OC(F)(F)F)c(=O)[nH]c2nccnc12 [Compound B8] | 2 | 1 | 3 | 3
32 | CC(=O)Oc1c(-c2c(Cl)cccc2Cl)c(=O)[nH]c2nccnc12 [Compound B10] | 0 | 8 | 0 | 6
33 | CCC(=O)Oc1c(-c2c(Cl)cccc2Cl)c(=O)[nH]c2nccnc12 [Compound B11] | 0 | 8 | 1 | 3
34 | CC(=O)Oc1c(-c2c(Cl)cc(C(F)(F)F)cc2Cl)c(=O)[nH]c2nccnc12 [Compound B15] | 0 | 0 | 2 | 7
35 | CC(C)(C)C(=O)Oc1c(-c2ccccc2OC(F)(F)F)c(=O)[nH]c2nccnc12 [Compound B17] | 2 | 0 | 0 | 0
36 | CC(=O)Oc1c(-c2c(C)cc(C)cc2C)c(=O)[nH]c2nccnc12 [Compound B33] | 0 | 5 | 3 | 5
37 | CCn1c(=O)c(-c2ccccc2OC(F)(F)F)c(O)c2nccnc21 [Compound D5] |  | 3 | 6 | 7
